Test results reported in publication PMC10935023 (Acta Pharmaceutica Sinica. B, 2023).

Columns and labels:
α1 = assay: Receptor binding, [3H]-Prazosin
CRS mice [1] = assay: Morris water maze; type: in vivo, mouse
CRS mice [2] = assay: FST in chronic restraint stress; type: in vivo, mouse
mice [3] = assay: Forced swimming test; type: in vivo, mouse; conditions: i.g., 1 h before test, doses 10, 30, 100 mg/kg
normal mice = assay: Novel object recognition; type: in vivo, mouse
animals = assay: Observation of epileptic behavior in treated animals; type: in vivo; conditions: up to 100 mg/kg
5-HT2A = 5-HT2A (Homo sapiens, UniProt P28223); assay: Receptor binding, [3H]-Ketanserin; conditions: read-out: % Inhibition of binding by D01 (10 μmol/L)
Chain of 5-HT2A (P28223 whole entry, species assumed): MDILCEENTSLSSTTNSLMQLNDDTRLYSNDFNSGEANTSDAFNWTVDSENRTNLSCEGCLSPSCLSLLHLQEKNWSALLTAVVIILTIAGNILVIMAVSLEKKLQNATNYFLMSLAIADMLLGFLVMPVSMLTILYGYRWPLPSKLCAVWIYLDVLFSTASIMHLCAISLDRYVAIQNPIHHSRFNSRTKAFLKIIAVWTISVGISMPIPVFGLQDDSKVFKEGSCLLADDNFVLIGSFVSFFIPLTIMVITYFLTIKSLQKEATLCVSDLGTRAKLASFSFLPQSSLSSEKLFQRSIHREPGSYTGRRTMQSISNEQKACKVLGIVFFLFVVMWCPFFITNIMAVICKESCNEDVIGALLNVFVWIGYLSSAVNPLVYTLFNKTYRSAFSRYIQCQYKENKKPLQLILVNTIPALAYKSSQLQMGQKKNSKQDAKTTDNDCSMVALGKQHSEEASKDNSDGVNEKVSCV

5-HT1B = 5-HT1B (Homo sapiens, UniProt P28222); assay: Receptor binding, [3H]-GR-125743; conditions: read-out: % Inhibition of binding by D01 (10 μmol/L)
Chain of 5-HT1B (P28222 whole entry, species assumed): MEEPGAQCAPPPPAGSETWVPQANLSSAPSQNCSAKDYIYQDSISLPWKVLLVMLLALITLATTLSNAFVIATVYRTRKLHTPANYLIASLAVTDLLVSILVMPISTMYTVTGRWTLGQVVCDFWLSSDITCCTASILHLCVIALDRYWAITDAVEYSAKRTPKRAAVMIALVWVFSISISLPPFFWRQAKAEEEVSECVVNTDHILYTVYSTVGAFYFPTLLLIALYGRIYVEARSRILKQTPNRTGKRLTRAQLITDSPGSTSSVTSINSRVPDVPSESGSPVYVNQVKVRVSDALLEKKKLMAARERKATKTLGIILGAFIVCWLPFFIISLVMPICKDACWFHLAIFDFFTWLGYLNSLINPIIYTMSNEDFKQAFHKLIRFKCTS

Sigma-1 = Sigma-1 (Homo sapiens, UniProt Q99720); assay: Receptor binding, [3H]-Pentazocine; conditions: read-out: % Inhibition of binding by D01 (10 μmol/L)
Chain of Sigma-1 (Q99720 whole entry): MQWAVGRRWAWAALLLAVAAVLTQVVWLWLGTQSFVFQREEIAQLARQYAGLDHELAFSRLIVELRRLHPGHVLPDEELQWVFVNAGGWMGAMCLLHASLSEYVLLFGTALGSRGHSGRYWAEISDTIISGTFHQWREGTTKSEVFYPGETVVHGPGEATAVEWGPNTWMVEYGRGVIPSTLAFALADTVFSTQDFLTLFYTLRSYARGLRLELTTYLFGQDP

mice [4] = assay: Tail suspension test; type: in vivo, mouse; conditions: i.g., 60 min before test, doses 10, 30, 100 mg/kg
D2 = D2 (Homo sapiens, UniProt P14416); assay: Receptor binding, [3H]-Spiperone; conditions: read-out: % Inhibition of binding by D01 (10 μmol/L)
Chain of D2 (P14416 whole entry): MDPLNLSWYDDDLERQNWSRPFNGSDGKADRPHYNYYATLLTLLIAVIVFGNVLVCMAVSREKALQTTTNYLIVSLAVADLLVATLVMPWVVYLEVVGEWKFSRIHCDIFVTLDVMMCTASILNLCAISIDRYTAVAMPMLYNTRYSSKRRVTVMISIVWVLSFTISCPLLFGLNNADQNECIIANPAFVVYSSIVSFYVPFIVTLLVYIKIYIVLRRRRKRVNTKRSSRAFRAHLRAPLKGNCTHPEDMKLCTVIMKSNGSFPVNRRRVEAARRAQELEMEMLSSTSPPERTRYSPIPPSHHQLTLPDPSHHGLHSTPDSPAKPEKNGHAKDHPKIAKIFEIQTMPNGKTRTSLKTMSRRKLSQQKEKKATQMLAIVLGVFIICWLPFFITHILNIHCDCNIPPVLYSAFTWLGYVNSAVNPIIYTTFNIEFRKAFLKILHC

α2 = assay: Receptor binding, [3H]-Rauwolscine; conditions: α2, 10 μmol/L
CRS mice [5] = assay: TST in chronic restraint stress; type: in vivo, mouse
SERT = SERT (Rattus norvegicus, UniProt P31652); assay: [3H]5-HT uptake by crude synaptosomes; type: biochemical
D3 = D3 (Homo sapiens, UniProt P35462); assay: Receptor binding, [3H]-Spiperone; conditions: read-out: % Inhibition of binding by D01 (10 μmol/L)
Chain of D3 (P35462 whole entry): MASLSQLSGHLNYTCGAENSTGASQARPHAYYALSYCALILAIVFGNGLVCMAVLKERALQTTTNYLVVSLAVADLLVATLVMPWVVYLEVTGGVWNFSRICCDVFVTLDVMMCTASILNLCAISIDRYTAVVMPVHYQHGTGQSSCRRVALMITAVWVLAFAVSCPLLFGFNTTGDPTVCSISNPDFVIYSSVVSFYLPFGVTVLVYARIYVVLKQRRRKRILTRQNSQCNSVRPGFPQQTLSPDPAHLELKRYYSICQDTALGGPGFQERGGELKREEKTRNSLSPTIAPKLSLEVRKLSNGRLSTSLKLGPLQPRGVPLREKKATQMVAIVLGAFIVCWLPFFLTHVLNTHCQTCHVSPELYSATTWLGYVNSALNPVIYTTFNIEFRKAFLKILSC

H3 = H3 (Homo sapiens, UniProt Q9Y5N1); assay: Receptor binding, [3H]-Methylhistamine; conditions: read-out: % Inhibition of binding by D01 (10 μmol/L)
Chain of H3 (Q9Y5N1 whole entry): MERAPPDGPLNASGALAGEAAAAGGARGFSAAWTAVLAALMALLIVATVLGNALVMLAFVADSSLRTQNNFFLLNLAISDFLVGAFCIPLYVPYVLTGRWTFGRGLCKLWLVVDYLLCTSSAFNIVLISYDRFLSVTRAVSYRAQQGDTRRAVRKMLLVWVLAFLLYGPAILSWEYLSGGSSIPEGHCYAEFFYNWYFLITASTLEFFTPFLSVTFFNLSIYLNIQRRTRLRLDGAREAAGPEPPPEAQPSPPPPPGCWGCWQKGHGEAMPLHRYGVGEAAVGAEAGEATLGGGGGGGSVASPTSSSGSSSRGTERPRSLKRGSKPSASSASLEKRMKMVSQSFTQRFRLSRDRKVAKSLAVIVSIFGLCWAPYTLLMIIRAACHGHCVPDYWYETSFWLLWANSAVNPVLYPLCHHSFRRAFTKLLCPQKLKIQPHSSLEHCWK

native KCNQ/M channels = assay: Whole-cell recording of native M current in cultured hippocampal neurons; conditions: measured at −60 mV
hippocampal slices, CA1 = assay: LTP recording; type: in vivo, mouse; conditions: 30 mg/kg i.p. + scopolamine 1 mg/kg i.p.
hippocampal neurons = assay: Resting membrane potential and firing of cultured hippocampal neurons; type: cell-based, rat; conditions: 100 μmol/L
5-HT1A = 5-HT1A (Homo sapiens, UniProt P08908); assay: Receptor binding, [3H]-8-OH-DPAT; conditions: read-out: % Inhibition of binding by D01 (10 μmol/L)
Chain of 5-HT1A (P08908 whole entry, species assumed): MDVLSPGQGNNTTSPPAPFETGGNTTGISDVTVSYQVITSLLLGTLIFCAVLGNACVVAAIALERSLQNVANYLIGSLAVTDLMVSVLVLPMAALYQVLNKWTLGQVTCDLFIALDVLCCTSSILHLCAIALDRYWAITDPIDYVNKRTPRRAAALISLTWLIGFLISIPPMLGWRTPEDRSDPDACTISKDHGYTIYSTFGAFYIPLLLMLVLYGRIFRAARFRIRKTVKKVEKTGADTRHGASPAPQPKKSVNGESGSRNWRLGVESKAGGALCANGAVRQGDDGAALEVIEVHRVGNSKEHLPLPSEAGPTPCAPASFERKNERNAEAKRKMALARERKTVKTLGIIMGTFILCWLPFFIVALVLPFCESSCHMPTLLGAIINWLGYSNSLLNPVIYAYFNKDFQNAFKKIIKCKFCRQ

KCNQ2/3 channels = KCNQ2/3 channels (Homo sapiens, UniProt O43525+O43526); type: cell-based
5-HT2C = 5-HT2C (Homo sapiens, UniProt P28335); assay: Receptor binding, [3H]-Mesulergine; conditions: read-out: % Inhibition of binding by D01 (10 μmol/L)
Chain of 5-HT2C (P28335 33-458, species assumed): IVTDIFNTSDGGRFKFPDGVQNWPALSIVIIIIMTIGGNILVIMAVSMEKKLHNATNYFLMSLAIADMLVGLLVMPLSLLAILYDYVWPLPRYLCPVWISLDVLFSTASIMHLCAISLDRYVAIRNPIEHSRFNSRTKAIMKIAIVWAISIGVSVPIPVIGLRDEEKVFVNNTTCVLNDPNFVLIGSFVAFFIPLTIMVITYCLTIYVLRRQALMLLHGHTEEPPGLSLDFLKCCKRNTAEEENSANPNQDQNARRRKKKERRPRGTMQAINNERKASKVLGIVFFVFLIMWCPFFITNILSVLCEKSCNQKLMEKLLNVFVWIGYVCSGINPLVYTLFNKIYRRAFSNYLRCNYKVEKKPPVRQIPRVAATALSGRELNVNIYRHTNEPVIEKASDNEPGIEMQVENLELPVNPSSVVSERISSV

H1 = H1 (Homo sapiens, UniProt P35367); assay: Receptor binding, [3H]-Pyrilamine
Chain of H1 (P35367 whole entry): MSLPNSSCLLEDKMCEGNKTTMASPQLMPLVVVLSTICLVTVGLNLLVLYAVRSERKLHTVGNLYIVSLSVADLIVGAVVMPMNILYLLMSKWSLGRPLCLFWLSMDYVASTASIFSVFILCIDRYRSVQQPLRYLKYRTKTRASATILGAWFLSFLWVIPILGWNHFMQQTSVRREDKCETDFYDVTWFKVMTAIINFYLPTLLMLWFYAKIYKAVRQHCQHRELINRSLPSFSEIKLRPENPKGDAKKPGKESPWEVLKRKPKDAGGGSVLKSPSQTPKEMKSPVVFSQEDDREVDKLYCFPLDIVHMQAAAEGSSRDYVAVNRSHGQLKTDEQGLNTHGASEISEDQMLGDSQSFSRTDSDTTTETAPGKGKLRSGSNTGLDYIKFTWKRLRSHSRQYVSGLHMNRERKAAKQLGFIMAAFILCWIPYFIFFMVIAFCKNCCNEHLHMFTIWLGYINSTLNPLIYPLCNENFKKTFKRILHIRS

scopolamine-treated mice = assay: NOR in scopolamine-induced cognitive deficit; type: in vivo, mouse
M1 = M1 (Homo sapiens, UniProt P11229); assay: Receptor binding, [3H]-QNB; conditions: read-out: % Inhibition of binding by D01 (10 μmol/L)
Chain of M1 (P11229 whole entry): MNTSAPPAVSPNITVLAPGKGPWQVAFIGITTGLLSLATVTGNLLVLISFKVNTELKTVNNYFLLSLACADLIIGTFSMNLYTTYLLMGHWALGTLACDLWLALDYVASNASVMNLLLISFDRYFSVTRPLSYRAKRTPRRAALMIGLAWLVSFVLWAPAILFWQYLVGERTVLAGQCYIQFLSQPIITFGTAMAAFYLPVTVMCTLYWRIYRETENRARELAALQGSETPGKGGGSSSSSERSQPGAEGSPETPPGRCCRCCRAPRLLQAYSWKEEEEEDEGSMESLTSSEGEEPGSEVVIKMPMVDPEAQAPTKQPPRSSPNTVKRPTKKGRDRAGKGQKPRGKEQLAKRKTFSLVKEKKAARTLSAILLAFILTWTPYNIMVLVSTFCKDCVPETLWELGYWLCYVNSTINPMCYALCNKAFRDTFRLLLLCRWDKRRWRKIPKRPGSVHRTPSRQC

D1 = D1 (Homo sapiens, UniProt P21728); assay: Receptor binding, [3H]-SCH23390; conditions: read-out: % Inhibition of binding by D01 (10 μmol/L)
Chain of D1 (P21728 whole entry): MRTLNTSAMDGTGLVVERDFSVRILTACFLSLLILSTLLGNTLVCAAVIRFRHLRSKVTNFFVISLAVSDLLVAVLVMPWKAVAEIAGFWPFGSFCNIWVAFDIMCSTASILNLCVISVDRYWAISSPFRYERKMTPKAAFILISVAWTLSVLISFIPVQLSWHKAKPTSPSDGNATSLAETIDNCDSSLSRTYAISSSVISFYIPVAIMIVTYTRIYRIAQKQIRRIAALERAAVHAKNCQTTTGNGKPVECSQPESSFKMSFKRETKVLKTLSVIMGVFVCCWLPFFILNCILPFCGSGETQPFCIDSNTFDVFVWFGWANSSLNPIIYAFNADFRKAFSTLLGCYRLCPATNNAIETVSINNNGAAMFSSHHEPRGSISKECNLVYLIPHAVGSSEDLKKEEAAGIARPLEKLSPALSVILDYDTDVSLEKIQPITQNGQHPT

[6] = biological target: serotonin transporter (SERT) (Rattus norvegicus, UniProt P31652); type: binding
NMDA = assay: Receptor binding, [3H]-MK801
[7] = fluoxetine 20 mg/kg i.g., 21 days

## CC(CN(C)C)C(Oc1cccc2ccccc12)c1cccs1 (centres unmarked) [Compound D01, N,N,2-trimethyl-3-(1-naphthyloxy)-3-(thien-2-yl) propan-1-amine]
α1; read-out: IC50 for D01, α1
  IC50: > 10 µM
α1; α1, 10 μmol/L
  % Inhibition of binding by D01 (10 μmol/L): 56.21%
CRS mice [1]; 10 mg/kg i.g.
  distance traveled while crossing the target zone, probe trial Day 5: 4748.7 ± 308.1 cm
  escape latency after four days of training: 37.3 ± 3.1 s
  initial escape latency: 51.1 ± 2.5 s
CRS mice [1]; 20 mg/kg i.g.
  distance traveled while crossing the target zone, probe trial Day 5: 4501.3 ± 266.5 cm
  escape latency after four days of training: 32.2 ± 3.6 s
  initial escape latency: 45.7 ± 3.7 s
  time in the target quadrant, probe trial Day 5: 15.8 ± 0.8 s
CRS mice [1]; 40 mg/kg i.g.
  distance traveled while crossing the target zone, probe trial Day 5: 4357.5 ± 310.9 cm
  escape latency after four days of training: 30.1 ± 3.9 s
  initial escape latency: 42.6 ± 3.5 s
  time in the target quadrant, probe trial Day 5: 16.2 ± 0.8 s
CRS mice [2]; 20 mg/kg i.g., 21 days (D01)
  immobility time in FST: 54.53 ± 18.11 s
CRS mice [2]; 40 mg/kg i.g., 21 days
  immobility time in FST: 44.62 ± 17.03 s
Mice [3]
  minimal effective dose (MED), immobility in FST: 30 mg/kg
Normal mice; 30 mg/kg i.g.
  time spent on familiar object: 7.20 ± 2.73 s
  time spent on novel object: 18.10 ± 6.42 s
Normal mice; 100 mg/kg i.g.
  time spent on familiar object: 10.90 ± 2.50 s
  time spent on novel object: 21.90 ± 4.84 s
animals
  epileptic behavior: did not observe
5-HT2A
  inhibition at 10 µM: 25.1%
5-HT1B
  inhibition at 10 µM: 12%
Sigma-1
  inhibition at 10 µM: 34%
Mice [4]
  minimal effective dose (MED), immobility in TST: 10 mg/kg
D2
  inhibition at 10 µM: 16.1%
α2
  % Inhibition of binding by D01 (10 μmol/L): 38.43%
CRS mice [5]; 20 mg/kg i.g., 21 days (D01)
  immobility time in TST: 87.61 ± 12.04 s
CRS mice [5]; 40 mg/kg i.g., 21 days
  immobility time in TST: 68.17 ± 20.30 s
SERT
  IC50: 0.045 ± 0.009 µM
D3
  inhibition at 10 µM: 32.8%
H3
  inhibition at 10 µM: 13.9%
Native KCNQ/M channels; 100 μmol/L
  effect on native M current: dramatically inhibits
Hippocampal slices, CA1
  effect on scopolamine-induced LTP inhibition: significantly reversed
Hippocampal neurons
  effect on resting membrane potential: depolarizes
  significant increase of firing frequency: did not observe
5-HT1A
  inhibition at 10 µM: -24.1%
KCNQ2/3 channels
  IC50: 10.1 ± 2.4 µM
5-HT2C
  inhibition at 10 µM: 38%
H1
  IC50: > 10 µM
H1; read-out: % Inhibition of binding by D01 (10 μmol/L)
  inhibition at 10 µM: 61.8%
scopolamine-treated mice; scopolamine 1 mg/kg i.p. + 10 mg/kg i.g.
  discrimination index (DI): 0.21 ± 0.08
scopolamine-treated mice; scopolamine 1 mg/kg i.p. + 30 mg/kg i.g.
  discrimination index (DI): 0.36 ± 0.03
scopolamine-treated mice; scopolamine 1 mg/kg i.p. + 100 mg/kg i.g.
  discrimination index (DI): 0.45 ± 0.05
M1
  inhibition at 10 µM: 24.7%
D1
  inhibition at 10 µM: 16.3%
[6]
  Ki: 0.0301 ± 0.0069 µM
NMDA
  % Inhibition of binding by D01 (10 μmol/L): 9.83%

## CCOC(=O)Nc1ccc(NCc2ccc(F)cc2)cc1N [RTG, retigabine]
Native KCNQ/M channels; 10 μmol/L
  effect on native M current: activated

## O=C1c2ccccc2C(Cc2ccncc2)(Cc2ccncc2)c2ccccc21 [XE991, reference compound]
CRS mice [1]; XE991 1 mg/kg s.c.
  effect on time and distance in target quadrant, probe trial Day 5: did not exhibit any noticeable effects
  escape latency after four days of training: 33.4 ± 3.4 s
  initial escape latency: 48.9 ± 3.4 s
CRS mice [2]; 1 mg/kg s.c.
  reduction of immobility in FST: not statistically significant
Normal mice; 1 mg/kg s.c.
  time spent on familiar object: 16.50 ± 2.63 s
  time spent on novel object: 38.40 ± 3.80 s
CRS mice [5]; 1 mg/kg s.c.
  reduction of immobility in TST: not statistically significant
Native KCNQ/M channels; 3 μmol/L
  effect on native M current: inhibited
scopolamine-treated mice; scopolamine 1 mg/kg i.p. + XE991 1 mg/kg s.c.
  discrimination index (DI): 0.36 ± 0.04

## CNCCC(Oc1ccc(C(F)(F)F)cc1)c1ccccc1 (centres unmarked) [fluoxetine, reference compound]
CRS mice [1]; fluoxetine 20 mg/kg i.g.
  effect on escape latency: did not show any significant effect
  effect on time and distance in target quadrant, probe trial Day 5: did not exhibit any noticeable effects
CRS mice [2]; [7]
  immobility time in FST: 18.7 ± 6.3 s
Normal mice; fluoxetine 100 mg/kg i.g.
  difference in time spent on novel and familiar objects: no obvious difference
CRS mice [5]; [7]
  immobility time in TST: 69.8 ± 14.9 s
scopolamine-treated mice; scopolamine 1 mg/kg i.p. + fluoxetine 100 mg/kg i.g.
  improvement in scopolamine-induced cognitive impairment: did not show any noticeable improvement

## CCN(C)C(=O)Oc1cccc([C@H](C)N(C)C)c1 [rivastigmine, reference compound]
scopolamine-treated mice; scopolamine 1 mg/kg i.p. + 0.01 mg/kg s.c.
  improvement in scopolamine-induced cognitive impairment: did not show any noticeable improvement
